Columns and labels:
Assay in all cases: Kinase selectivity panel
Assay type in all cases: biochemical
Details in all cases: read-out: Inhibition(%) @ 1 µM RK-019
cKit(D816V)(h) = target: T1, cKit(D816V)(h) (Homo sapiens, UniProt P10721, D816V)
T1 construct: purchased Eurofins Discovery Services (KinaseProfiler)
In short: (§1)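 Inhibition ratio was measured at 1 µM test compound in an ATP-site competition binding format across 422 recombinant human kinases.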

Abl(h) = target: T2, Abl(h) (Homo sapiens, UniProt P00519)
T2 construct: purchased Eurofins Discovery Services (KinaseProfiler)
In short: as §1

ZAP-70(h) = target: T3, ZAP-70(h) (Homo sapiens, UniProt P43403)
T3 construct: purchased Eurofins Discovery Services (KinaseProfiler)
In short: as §1

Fms(h) = target: T4, Fms(h) (Homo sapiens, UniProt P07333)
T4 construct: purchased Eurofins Discovery Services (KinaseProfiler)
In short: as §1

Plk4(h) = target: T5, Plk4(h) (Homo sapiens, UniProt O00444)
T5 construct: purchased Eurofins Discovery Services (KinaseProfiler)
In short: as §1

CLK2(h) = target: T6, CLK2(h) (Homo sapiens, UniProt P49760)
T6 construct: purchased Eurofins Discovery Services (KinaseProfiler)
In short: as §1

CDK18/cyclinY(h) = target: T7, CDK18/cyclinY(h) (Homo sapiens, UniProt Q07002)
T7 construct: purchased Eurofins Discovery Services (KinaseProfiler)
In short: as §1

Lck(h) = target: T8, Lck(h) (Homo sapiens, UniProt P06239)
T8 construct: purchased Eurofins Discovery Services (KinaseProfiler)
In short: as §1

ASK1(h) = target: T9, ASK1(h) (Homo sapiens, UniProt Q99683)
T9 construct: purchased Eurofins Discovery Services (KinaseProfiler)
In short: as §1

EGFR(L858R)(h) = target: T10, EGFR(L858R)(h) (Homo sapiens, UniProt P00533, L858R)
T10 construct: purchased Eurofins Discovery Services (KinaseProfiler)
In short: as §1

Lck(h) activated = target: T11, Lck(h) activated (Homo sapiens, UniProt P06239)
T11 construct: purchased Eurofins Discovery Services (KinaseProfiler)
In short: as §1

ULK2(h) = target: T12, ULK2(h) (Homo sapiens, UniProt Q8IYT8)
T12 construct: purchased Eurofins Discovery Services (KinaseProfiler)
In short: as §1

CDK5/p35(h) = target: T13, CDK5/p35(h) (Homo sapiens, UniProt Q00535)
T13 construct: purchased Eurofins Discovery Services (KinaseProfiler)
In short: as §1

DYRK2(h) = target: T14, DYRK2(h) (Homo sapiens, UniProt Q92630)
T14 construct: purchased Eurofins Discovery Services (KinaseProfiler)
In short: as §1

PI3KC2g(h) = target: T15, PI3KC2g(h) (Homo sapiens, UniProt O75747)
T15 construct: purchased Eurofins Discovery Services (KinaseProfiler)
In short: as §1

SAPK2a(h) = target: T16, SAPK2a(h) (Homo sapiens, UniProt Q16539)
T16 construct: purchased Eurofins Discovery Services (KinaseProfiler)
In short: as §1

PKCμ(h) = target: T17, PKCμ(h) (Homo sapiens, UniProt Q15139)
T17 construct: purchased Eurofins Discovery Services (KinaseProfiler)
In short: as §1

SRMS(h) = target: T18, SRMS(h) (Homo sapiens, UniProt Q9H3Y6)
T18 construct: purchased Eurofins Discovery Services (KinaseProfiler)
In short: as §1

[1] = target: T19, PI3 Kinase (p110d/p85a)(h) (Homo sapiens, UniProt O00329)
T19 construct: purchased Eurofins Discovery Services (KinaseProfiler)
In short: as §1

CDK14/cyclinY(h) = target: T20, CDK14/cyclinY(h) (Homo sapiens, UniProt O94921)
T20 construct: purchased Eurofins Discovery Services (KinaseProfiler)
In short: as §1

TAO2(h) = target: T21, TAO2(h) (Homo sapiens, UniProt Q9UL54)
T21 construct: purchased Eurofins Discovery Services (KinaseProfiler)
In short: as §1

PKG1β(h) = target: T22, PKG1β(h) (Homo sapiens, UniProt Q13976)
T22 construct: purchased Eurofins Discovery Services (KinaseProfiler)
In short: as §1

ALK4(h) = target: T23, ALK4(h) (Homo sapiens, UniProt P36896)
T23 construct: purchased Eurofins Discovery Services (KinaseProfiler)
In short: as §1

DYRK1A(h) = target: T24, DYRK1A(h) (Homo sapiens, UniProt Q13627)
T24 construct: purchased Eurofins Discovery Services (KinaseProfiler)
In short: as §1

PIP5K1a(h) = target: T25, PIP5K1a(h) (Homo sapiens, UniProt Q99755)
T25 construct: purchased Eurofins Discovery Services (KinaseProfiler)
In short: as §1

FGFR1(V561M)(h) = target: T26, FGFR1(V561M)(h) (Homo sapiens, UniProt P11362, V561M)
T26 construct: purchased Eurofins Discovery Services (KinaseProfiler)
In short: as §1

LTK(h) = target: T27, LTK(h) (Homo sapiens, UniProt P29376)
T27 construct: purchased Eurofins Discovery Services (KinaseProfiler)
In short: as §1

PAK1(h) = target: T28, PAK1(h) (Homo sapiens, UniProt Q13153)
T28 construct: purchased Eurofins Discovery Services (KinaseProfiler)
In short: as §1

TAO1(h) = target: T29, TAO1(h) (Homo sapiens, UniProt Q7L7X3)
T29 construct: purchased Eurofins Discovery Services (KinaseProfiler)
In short: as §1

PDHK4(h) = target: T30, PDHK4(h) (Homo sapiens, UniProt Q16654)
T30 construct: purchased Eurofins Discovery Services (KinaseProfiler)
In short: as §1

ALK6(h) = target: T31, ALK6(h) (Homo sapiens, UniProt O00238)
T31 construct: purchased Eurofins Discovery Services (KinaseProfiler)
In short: as §1

PEK(h) = target: T32, PEK(h) (Homo sapiens, UniProt Q9NZJ5)
T32 construct: purchased Eurofins Discovery Services (KinaseProfiler)
In short: as §1

MOK(h) = target: T33, MOK(h) (Homo sapiens, UniProt Q9UQ07)
T33 construct: purchased Eurofins Discovery Services (KinaseProfiler)
In short: as §1

Plk3(h) = target: T34, Plk3(h) (Homo sapiens, UniProt Q9H4B4)
T34 construct: purchased Eurofins Discovery Services (KinaseProfiler)
In short: as §1

PAR-1Bα(h) = target: T35, PAR-1Bα(h) (Homo sapiens, UniProt Q7KZI7)
T35 construct: purchased Eurofins Discovery Services (KinaseProfiler)
In short: as §1

SGK2(h) = target: T36, SGK2(h) (Homo sapiens, UniProt Q9HBY8)
T36 construct: purchased Eurofins Discovery Services (KinaseProfiler)
In short: as §1

IGF-1R(h) = target: T37, IGF-1R(h) (Homo sapiens, UniProt P08069)
T37 construct: purchased Eurofins Discovery Services (KinaseProfiler)
In short: as §1

T6 sequence (P49760 whole entry): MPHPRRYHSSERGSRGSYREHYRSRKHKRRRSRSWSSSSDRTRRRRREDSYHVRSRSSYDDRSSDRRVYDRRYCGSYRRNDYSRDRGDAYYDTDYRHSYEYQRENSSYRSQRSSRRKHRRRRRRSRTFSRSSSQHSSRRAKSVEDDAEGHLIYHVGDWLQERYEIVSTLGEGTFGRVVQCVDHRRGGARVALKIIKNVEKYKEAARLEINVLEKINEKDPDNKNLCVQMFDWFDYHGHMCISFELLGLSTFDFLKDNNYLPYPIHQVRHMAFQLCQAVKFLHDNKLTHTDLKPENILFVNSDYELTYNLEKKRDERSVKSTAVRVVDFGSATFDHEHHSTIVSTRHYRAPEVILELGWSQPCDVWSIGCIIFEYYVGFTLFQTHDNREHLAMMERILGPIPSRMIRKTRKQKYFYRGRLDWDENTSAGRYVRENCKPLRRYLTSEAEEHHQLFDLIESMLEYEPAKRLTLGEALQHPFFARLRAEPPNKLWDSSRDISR
T28 sequence (Q13153 whole entry): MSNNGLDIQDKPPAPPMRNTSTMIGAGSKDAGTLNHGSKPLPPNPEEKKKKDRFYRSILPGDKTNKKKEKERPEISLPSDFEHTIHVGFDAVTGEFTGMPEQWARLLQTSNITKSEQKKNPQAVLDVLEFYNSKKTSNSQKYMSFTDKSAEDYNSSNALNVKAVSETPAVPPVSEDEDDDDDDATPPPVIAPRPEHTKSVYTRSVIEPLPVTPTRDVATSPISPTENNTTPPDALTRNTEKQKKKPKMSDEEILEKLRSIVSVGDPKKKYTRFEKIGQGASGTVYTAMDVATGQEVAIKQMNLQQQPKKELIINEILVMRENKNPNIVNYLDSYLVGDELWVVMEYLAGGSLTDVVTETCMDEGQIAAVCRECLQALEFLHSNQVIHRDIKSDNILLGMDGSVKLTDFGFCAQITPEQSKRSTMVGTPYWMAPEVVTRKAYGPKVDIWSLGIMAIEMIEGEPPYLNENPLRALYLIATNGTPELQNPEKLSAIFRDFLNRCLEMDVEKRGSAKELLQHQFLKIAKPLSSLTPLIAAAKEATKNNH
T8 sequence (P06239 whole entry): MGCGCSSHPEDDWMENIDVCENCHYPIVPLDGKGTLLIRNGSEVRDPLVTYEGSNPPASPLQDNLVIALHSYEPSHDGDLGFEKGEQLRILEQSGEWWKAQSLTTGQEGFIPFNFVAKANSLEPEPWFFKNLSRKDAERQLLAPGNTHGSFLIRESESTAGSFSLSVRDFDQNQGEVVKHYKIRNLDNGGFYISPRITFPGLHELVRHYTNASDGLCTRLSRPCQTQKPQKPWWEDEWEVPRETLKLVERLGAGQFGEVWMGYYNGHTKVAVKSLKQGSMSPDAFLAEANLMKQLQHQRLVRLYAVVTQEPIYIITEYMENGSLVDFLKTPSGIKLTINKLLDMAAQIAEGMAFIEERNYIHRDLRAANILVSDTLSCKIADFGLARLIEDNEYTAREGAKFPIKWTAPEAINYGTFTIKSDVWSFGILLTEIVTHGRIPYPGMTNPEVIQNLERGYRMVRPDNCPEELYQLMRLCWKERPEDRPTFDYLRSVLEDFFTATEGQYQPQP
T11 sequence (P06239 whole entry): as above
T37 sequence (P08069 31-1367): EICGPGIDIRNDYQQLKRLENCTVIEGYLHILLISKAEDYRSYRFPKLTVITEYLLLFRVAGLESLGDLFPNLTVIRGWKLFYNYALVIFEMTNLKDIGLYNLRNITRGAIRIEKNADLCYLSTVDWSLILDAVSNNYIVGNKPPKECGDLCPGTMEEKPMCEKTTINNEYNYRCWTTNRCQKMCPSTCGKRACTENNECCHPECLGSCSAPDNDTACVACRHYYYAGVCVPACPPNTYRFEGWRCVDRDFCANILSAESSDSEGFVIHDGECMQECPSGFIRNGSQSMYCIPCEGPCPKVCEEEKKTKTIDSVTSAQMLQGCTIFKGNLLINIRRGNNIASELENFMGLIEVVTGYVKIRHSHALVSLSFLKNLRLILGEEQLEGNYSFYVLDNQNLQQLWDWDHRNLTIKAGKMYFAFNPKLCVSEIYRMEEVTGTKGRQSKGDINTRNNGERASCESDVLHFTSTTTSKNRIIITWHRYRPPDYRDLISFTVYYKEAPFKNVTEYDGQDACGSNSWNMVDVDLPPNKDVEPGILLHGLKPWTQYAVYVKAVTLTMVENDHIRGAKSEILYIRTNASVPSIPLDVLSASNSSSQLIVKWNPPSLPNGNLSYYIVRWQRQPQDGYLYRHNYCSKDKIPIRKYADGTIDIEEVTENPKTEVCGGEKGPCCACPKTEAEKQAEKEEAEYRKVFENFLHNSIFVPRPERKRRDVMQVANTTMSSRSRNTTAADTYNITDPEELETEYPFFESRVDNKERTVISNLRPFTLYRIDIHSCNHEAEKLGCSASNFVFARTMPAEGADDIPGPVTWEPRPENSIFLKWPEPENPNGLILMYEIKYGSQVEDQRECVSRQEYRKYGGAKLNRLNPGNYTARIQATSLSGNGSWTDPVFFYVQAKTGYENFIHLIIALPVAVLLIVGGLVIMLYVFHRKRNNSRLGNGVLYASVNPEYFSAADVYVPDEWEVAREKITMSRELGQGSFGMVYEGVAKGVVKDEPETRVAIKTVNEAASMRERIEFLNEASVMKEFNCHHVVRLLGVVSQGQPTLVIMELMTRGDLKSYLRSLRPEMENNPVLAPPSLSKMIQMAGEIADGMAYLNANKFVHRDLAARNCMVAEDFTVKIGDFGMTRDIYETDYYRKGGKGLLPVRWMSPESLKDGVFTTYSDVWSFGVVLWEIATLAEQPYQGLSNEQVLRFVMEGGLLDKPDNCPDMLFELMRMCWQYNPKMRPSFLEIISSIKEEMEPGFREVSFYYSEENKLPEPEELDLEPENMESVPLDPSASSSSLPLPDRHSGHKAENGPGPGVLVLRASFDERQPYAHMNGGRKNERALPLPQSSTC
T5 sequence (O00444 whole entry): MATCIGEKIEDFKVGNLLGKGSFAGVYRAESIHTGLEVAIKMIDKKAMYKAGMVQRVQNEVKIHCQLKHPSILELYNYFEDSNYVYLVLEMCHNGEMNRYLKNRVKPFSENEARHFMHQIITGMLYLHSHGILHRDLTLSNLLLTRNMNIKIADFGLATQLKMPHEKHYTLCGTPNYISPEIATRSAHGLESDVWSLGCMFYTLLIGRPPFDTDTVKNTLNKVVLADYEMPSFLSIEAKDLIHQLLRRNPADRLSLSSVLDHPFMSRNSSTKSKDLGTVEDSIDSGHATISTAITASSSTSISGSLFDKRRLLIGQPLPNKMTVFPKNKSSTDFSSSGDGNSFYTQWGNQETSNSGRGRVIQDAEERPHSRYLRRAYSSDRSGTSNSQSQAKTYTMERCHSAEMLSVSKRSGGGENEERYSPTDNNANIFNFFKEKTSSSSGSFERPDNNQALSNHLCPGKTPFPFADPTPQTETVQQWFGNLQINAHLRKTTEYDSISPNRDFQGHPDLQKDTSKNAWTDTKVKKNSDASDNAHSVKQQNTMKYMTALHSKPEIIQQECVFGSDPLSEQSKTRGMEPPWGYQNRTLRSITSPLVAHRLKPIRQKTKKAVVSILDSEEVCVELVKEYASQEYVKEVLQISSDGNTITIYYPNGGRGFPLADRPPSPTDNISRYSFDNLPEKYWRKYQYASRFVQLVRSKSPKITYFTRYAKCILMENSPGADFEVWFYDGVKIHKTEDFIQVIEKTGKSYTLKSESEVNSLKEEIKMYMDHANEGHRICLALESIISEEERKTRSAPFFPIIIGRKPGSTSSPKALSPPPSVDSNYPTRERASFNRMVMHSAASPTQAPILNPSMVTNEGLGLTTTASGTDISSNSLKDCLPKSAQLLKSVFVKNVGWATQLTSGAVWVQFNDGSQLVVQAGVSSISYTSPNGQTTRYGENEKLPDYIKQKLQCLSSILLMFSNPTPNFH
T36 sequence (Q9HBY8 whole entry): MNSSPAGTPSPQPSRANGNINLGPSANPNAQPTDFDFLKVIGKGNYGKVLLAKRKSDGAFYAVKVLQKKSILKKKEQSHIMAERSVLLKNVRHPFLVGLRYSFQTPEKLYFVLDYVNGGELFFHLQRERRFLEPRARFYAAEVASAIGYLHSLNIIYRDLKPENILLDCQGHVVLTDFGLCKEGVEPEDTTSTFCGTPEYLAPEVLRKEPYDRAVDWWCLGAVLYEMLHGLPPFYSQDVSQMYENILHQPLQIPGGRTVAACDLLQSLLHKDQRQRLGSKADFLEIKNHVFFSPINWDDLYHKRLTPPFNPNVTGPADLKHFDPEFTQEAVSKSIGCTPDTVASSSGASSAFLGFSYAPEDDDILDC
T31 sequence (O00238 14-502): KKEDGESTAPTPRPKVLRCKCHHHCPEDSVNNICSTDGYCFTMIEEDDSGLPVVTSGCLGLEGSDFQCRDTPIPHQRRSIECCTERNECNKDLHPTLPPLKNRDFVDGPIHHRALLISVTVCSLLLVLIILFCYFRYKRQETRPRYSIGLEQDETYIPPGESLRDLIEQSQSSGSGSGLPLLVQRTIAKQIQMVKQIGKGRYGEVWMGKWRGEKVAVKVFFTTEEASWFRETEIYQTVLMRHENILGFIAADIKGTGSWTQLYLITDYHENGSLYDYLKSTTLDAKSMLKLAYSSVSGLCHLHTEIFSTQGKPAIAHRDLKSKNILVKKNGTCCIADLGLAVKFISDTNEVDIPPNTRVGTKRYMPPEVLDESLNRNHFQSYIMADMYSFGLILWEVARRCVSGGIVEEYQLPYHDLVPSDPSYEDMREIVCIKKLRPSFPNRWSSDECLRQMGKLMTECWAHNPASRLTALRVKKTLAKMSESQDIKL

COc1cc(OC)cc(N(CCN[C@H](C)CO)c2ccc3ncc(-c4cnn(C)c4)c(=O)n3c2)c1 [RK-019, (R)-7-((3,5-dimethoxyphenyl) (2-((1-hydroxypropan-2-yl)amino)ethyl)amino)-3-(1-methyl-1H-pyrazol-4-yl)-4H-pyrido [1,2-a]pyrimidin-4-one]
activity at 1 µM (cKit(D816V)(h)): 93%
activity at 1 µM (Abl(h)): 40%
activity at 1 µM (ZAP-70(h)): 119%
activity at 1 µM (Fms(h)): 16%
activity at 1 µM (Plk4(h)): 91%
activity at 1 µM (CLK2(h)): 107%
activity at 1 µM (CDK18/cyclinY(h)): 96%
activity at 1 µM (Lck(h)): 30%
activity at 1 µM (ASK1(h)): 118%
activity at 1 µM (EGFR(L858R)(h)): 114%
activity at 1 µM (Lck(h) activated): 36%
activity at 1 µM (ULK2(h)): 107%
activity at 1 µM (CDK5/p35(h)): 106%
activity at 1 µM (DYRK2(h)): 94%
activity at 1 µM (PI3KC2g(h)): 102%
activity at 1 µM (SAPK2a(h)): 100%
activity at 1 µM (PKCμ(h)): 107%
activity at 1 µM (SRMS(h)): 123%
activity at 1 µM [1]: 93%
activity at 1 µM (CDK14/cyclinY(h)): 91%
activity at 1 µM (TAO2(h)): 95%
activity at 1 µM (PKG1β(h)): 103%
activity at 1 µM (ALK4(h)): 91%
activity at 1 µM (DYRK1A(h)): 101%
activity at 1 µM (PIP5K1a(h)): 103%
activity at 1 µM (FGFR1(V561M)(h)): 70%
activity at 1 µM (LTK(h)): 101%
activity at 1 µM (PAK1(h)): 102%
activity at 1 µM (TAO1(h)): 115%
activity at 1 µM (PDHK4(h)): 93%
activity at 1 µM (ALK6(h)): 107%
activity at 1 µM (PEK(h)): 85%
activity at 1 µM (MOK(h)): 97%
activity at 1 µM (Plk3(h)): 101%
activity at 1 µM (PAR-1Bα(h)): 92%
activity at 1 µM (SGK2(h)): 79%
activity at 1 µM (IGF-1R(h)): 104%

— PMC9532703, “A novel small molecule RK-019 inhibits FGFR2-amplification gastric cancer cell proliferation and induces apoptosis in vitro and in vivo” (Frontiers in Pharmacology, 2022)
